Reference: article PMC12224939, “Trypstatin as a Novel TMPRSS2 Inhibitor with Broad‐Spectrum Efficacy against Corona and Influenza Viruses” (Advanced Science, 2025)
Structures can show the parent of a compound that is named as a salt. Where two headings read alike, the source gives them in different places.

Tests used:
[1] = tested on: lentiviral pseudoparticles harboring the SARS-CoV-1 spike; experiment: microbe, parasite or virus in culture; conditions: Severe acute respiratory syndrome coronavirus, Caco-2, read-out: anti-viral IC50 (±SEM), SARS-CoV-1 pp
[2] = tested on: lentiviral pseudoparticles harboring the MERS-CoV spike; experiment: microbe, parasite or virus in culture; conditions: Middle East respiratory syndrome-related coronavirus

CN(C)C(=O)COC(=O)Cc1ccc(OC(=O)c2ccc(NC(=N)N)cc2)cc1 [Camostat mesylate]
IC50 [1]: 71.1 ± 8 nM
IC50 ([2]; Caco-2, 48 h, read-out: IC50, MERS-CoV spike pseudoparticles): 50 nM
IC50 ([2]; Caco-2, read-out: anti-viral IC50 (±SEM), MERS-CoV pp): 49.9 ± 19 nM
